Results reported in PubChem BioAssay (NCI).
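Following 48 hours of exposure in 96-well plates, responses at five concentrations were used to interpolate endpoints linearly. At the GI50, growth is halved. The concentration for full growth arrest is given as TGI.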

Legend:
Test in all cases: NCI tumour cell line growth inhibition, 48 h
[1] = test system: A498 renal
[2] = test system: BT-549 breast
[3] = test system: MALME-3M melanoma
[4] = test system: MCF7 breast
[5] = test system: SF-539 CNS
[6] = test system: SK-MEL-5 melanoma
[7] = test system: SK-OV-3 ovarian
[8] = test system: SNB-75 CNS
[9] = test system: HCC-2998 colon
[10] = test system: HOP-92 NSCLC

Structure (SMILES)	TGI [1]	TGI [2]	TGI [3]	TGI [4]	TGI [5]	TGI [6]	TGI [7]	TGI [8]	TGI [9]	TGI [10]	GI50 [1]	GI50 [2]	GI50 [9]	GI50 [10]	GI50 [3]	GI50 [5]	GI50 [6]	GI50 [8]	GI50 [4]	GI50 [7]
CCCCCC/C=C\CCCCCCCCCc1cccc(OC)c1O	> 100 µM	> 100 µM	> 100 µM	> 100 µM	> 100 µM	> 100 µM	> 100 µM	> 100 µM	–	–	–	–	–	–	–	–	–	–	–	–
CCOc1cc(CCNC)c2c(ccc3ccc(OC)c(O)c32)c1OC	–	30.1 µM	20 µM	22.4 µM	–	26.1 µM	27.5 µM	32.3 µM	30 µM	25.2 µM	–	–	–	–	–	–	–	–	–	–
O=C(O)c1ccccc1C(=O)Nc1cc2c(cc1Br)-c1ccccc1C2=O	> 100 µM	> 100 µM	> 100 µM	> 100 µM	> 100 µM	> 100 µM	> 100 µM	> 100 µM	58 µM	> 100 µM	–	–	–	–	–	–	–	–	–	–
COC(=O)C1OC(SCCN)C(O)C(O)C1O (configuration not stated)	> 100 µM	> 100 µM	> 100 µM	> 100 µM	> 100 µM	> 100 µM	> 100 µM	> 100 µM	–	> 100 µM	–	–	–	–	–	–	–	–	–	–
Cn1c(=S)c2[nH]c(SCc3cccnc3)nc2n(C)c1=O	> 100 µM	> 100 µM	> 100 µM	> 100 µM	> 100 µM	> 100 µM	> 100 µM	> 100 µM	> 100 µM	> 100 µM	–	–	–	–	–	–	–	–	–	–
O=C1Nc2cc(-c3ccc(O)cc3)ccc2/C1=C/c1ccc[nH]1	5.05 µM	13.3 µM	5.28 µM	–	1.53 µM	> 100 µM	–	8.35 µM	> 100 µM	5.12 µM	1.53 µM	0.396 µM	0.511 µM	1.14 µM	0.474 µM	0.246 µM	0.412 µM	2.08 µM	–	–
Cn1c(=O)c2[nH]c(CCS)nc2n(C)c1=O	> 100 µM	> 100 µM	> 100 µM	> 100 µM	> 100 µM	> 100 µM	> 100 µM	67.7 µM	–	> 100 µM	–	–	–	–	–	–	–	–	–	–
COc1ccccc1C(=O)Nc1ccc(Cl)c(C(=O)OC(C)C)c1	> 90.4 µM	> 100 µM	> 100 µM	> 100 µM	> 100 µM	> 54.8 µM	> 100 µM	> 100 µM	> 100 µM	> 100 µM	–	–	–	–	–	–	–	–	–	–
COc1ccc(-c2cncn2-c2ccc(-c3nc4cc(OC)c(OC)c(OC)c4s3)cc2)cc1N	> 100 µM	> 100 µM	9.97 µM	> 100 µM	> 100 µM	4.4 µM	> 100 µM	> 100 µM	–	–	4.83 µM	6.21 µM	–	–	2.48 µM	> 100 µM	1.73 µM	52.3 µM	4.07 µM	> 100 µM
Cc1cc(O)cc(-c2nn(C)cc2-c2cc(N3CCOCC3)nc(-c3cccnc3)n2)c1	3.24 µM	20.8 µM	40.3 µM	18.1 µM	4.8 µM	6.89 µM	43.7 µM	4.49 µM	49.5 µM	8.64 µM	1.06 µM	3.17 µM	13.9 µM	1.66 µM	11.6 µM	1.88 µM	1.76 µM	1.48 µM	1.13 µM	6.83 µM
N#CC1=C(N)Oc2c(ccc3cccnc23)C1c1ccccc1 (configuration not stated)	16.9 µM	23.6 µM	> 67.5 µM	58.1 µM	4.87 µM	13.9 µM	> 100 µM	3.5 µM	> 100 µM	> 83.4 µM	–	1.73 µM	–	–	–	–	–	–	0.406 µM	–
COc1ccc(C#CC2=C(Br)C(=O)OC2)cc1	12 µM	18.3 µM	–	> 50 µM	16.8 µM	14.3 µM	–	16.6 µM	–	–	0.873 µM	8.32 µM	–	–	–	5.15 µM	7.58 µM	1.29 µM	2.47 µM	–
COc1ncc(-c2ccc3ncnc(Nc4cccc(Cl)c4)c3c2)cc1NS(C)(=O)=O	2.94 µM	9.32 µM	–	11.1 µM	9.92 µM	3.22 µM	4.16 µM	5.82 µM	14.8 µM	5.28 µM	0.605 µM	1.92 µM	1.82 µM	0.472 µM	–	2.09 µM	1.37 µM	0.158 µM	0.404 µM	0.813 µM
COc1ccc(OC)c(-c2nc3sc(C)cn3c2/C=C2\C(=O)N(C)c3ccccc32)c1	70.6 µM	81.6 µM	70.1 µM	41.8 µM	42.5 µM	27.3 µM	71.4 µM	47.9 µM	–	–	29.3 µM	26.2 µM	–	–	28.5 µM	21.8 µM	14 µM	17.9 µM	12.7 µM	28.4 µM
CC(=O)OCCC/C(=C/c1cc2ccccc2c2ccccc12)[N+](=O)[O-]	2.72 µM	3.26 µM	3.38 µM	1.95 µM	2.86 µM	2.96 µM	7.38 µM	2.17 µM	3 µM	3.7 µM	1.38 µM	1.56 µM	1.64 µM	1.38 µM	1.55 µM	1.53 µM	1.61 µM	0.606 µM	0.545 µM	2.56 µM
NC(=O)/C=C/c1c[nH]c2nccnc12	12.5 µM	8.09 µM	2.18 µM	> 100 µM	6.15 µM	10.9 µM	> 100 µM	4.46 µM	5.28 µM	> 28.8 µM	–	–	–	–	–	–	–	–	–	–
O=C(/C=C/c1cc(O)ccc1O)c1ccc(Cl)cc1	–	51.8 µM	–	> 100 µM	–	> 100 µM	–	–	–	> 100 µM	–	25.9 µM	–	> 100 µM	–	–	55 µM	–	48.5 µM	–
C=CC(=O)N1CCC(CNc2ncnc(N)c2-c2ccc(Oc3ccccc3)cc2)CC1	31.9 µM	70.1 µM	67 µM	> 100 µM	71 µM	27.6 µM	70 µM	58.9 µM	46.7 µM	65.1 µM	10.7 µM	20.3 µM	21 µM	18.8 µM	23.9 µM	20.6 µM	14.3 µM	13.4 µM	23.4 µM	18 µM
